“And” between values parts separate entries of the source, which are not always exact repeats. Equal values may be shown once. The source made the active and inactive calls.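 The calls were made as follows: active = fitted half-maximal concentration below 30 µM for cell fluorescence in pump-free yeast, so likely self-fluorescent; inactive = the rest.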
experiment: concentration-dependent intrinsic compound fluorescence, S. cerevisiae AD/pABC3, flow cytometry, Cherry Pick1 hits, artefact control for antifungal efflux pump inhibitor project, dose response (AID 588620);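 also: red emission of unstained cells excited at 488 nm measured in PE-Texas Red channel; cell median fluorescence as percent of DMSO wells so 100% equals vehicle baseline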; conditions: S. cerevisiae AD/pABC3 compound autofluorescence, flow cytometry; at 33.1 µM (top of the series)

Row | SMILES | fluorescence response, % of control
1 | COc1ccc(Cn2nnc3c(=O)[nH]c(C4CCN(S(=O)(=O)c5ccc(C)cc5)CC4)nc32)cc1 | 95.7% (inactive)
2 | CC(C)(C)c1cc(C(c2cccnc2)N2CCN(CCO)CC2)cc(C(C)(C)C)c1O (stereo unspecified) | 78.8% (inactive)
3 | O=C(O)C(c1ccccc1)N1C(=O)/C(=C\c2ccc(O)c(O)c2)SC1=S (stereo unspecified) | 226% (inactive)
4 | CCC(=O)N1CCC2(CC1)Oc1ccc(Cl)cc1C(=O)C21CC(c2ccc(Cl)cc2)=NO1 (stereo unspecified) | 89.8% (inactive)
5 | CCCCCCCCn1ccc(=N)cc1 | 102% (inactive)
6 | O=C(COC(=O)c1ccc(Cl)cc1O)NCCN1C(=O)CSC1=O | 88.6% (inactive)
7 | CSCCC(NC(=O)c1ccccc1Cl)C(=O)N1CCN(C(c2ccccc2)c2ccccc2)CC1 (stereo unspecified) | 80.9% (inactive)
8 | CN(C(=O)c1ccc(NC(=O)c2ccco2)cc1)c1ccccc1 | 105% (inactive)
9 | O=C1c2cc(Cl)ccc2OC2(CCNCC2)C12CC(c1ccc(Cl)cc1)=NO2 (stereo unspecified) | 106% (inactive)
10 | c1ccc2c(c1)Cc1cc(CN3CCOCC3)ccc1-2 | 109% (inactive)
11 | Cc1c2ccncc2c(C)c2c1[nH]c1ccccc12 | 132% (inactive) and 1000% (inactive)
12 | CC(C)=C1C2CCC1C1C(=O)N(c3nc(-c4ccc(C(C)C)cc4)c(C)s3)C(=O)C21 (stereo unspecified) | 111% (inactive)
13 | Nc1cc2c(cc1C(=O)c1cccc(Br)c1)OCCO2 | 92.7% (inactive)
14 | COc1ccc2c(-c3ccc(OCCN4CCOCC4)cc3)c(-c3ccccc3OC)sc2c1 | 102% (inactive)
15 | O=C(O)CCN1C(=O)/C(=C\c2ccc(-c3nc4ccccc4s3)o2)SC1=S | 102% (inactive)
16 | Cc1ccc(O)c(C(=O)c2cnc3c(c2)CN(CCC(C)C)C(=O)N3)c1 | 102% (inactive)
17 | Cc1ccc(-c2c3c([nH]c(=S)c2C#N)CCCC3)o1 | 162% (inactive)
18 | CCCCCCCCCCOC(=O)Cn1c(COc2ccc(Cl)cc2)[n+](C)c2ccccc21 | 106% (inactive)
19 | CS(=O)(=O)Nc1ccc(C(=O)Nc2ccc3c(c2)OCCO3)cc1 | 95.7% (inactive)
20 | CC(C)(C)C(=O)CSc1nc2c(c(-c3cccs3)c1C#N)CCC2 | 92.4% (inactive)
21 | Nc1c(Cl)cc(C2=NCCn3nc4ccccc4c32)cc1Cl | 88.6% (inactive)

Row | SMILES | fluorescence response, % of control
22 | NC1=NC[C@H](Cc2ccc(O)cc2)N1CCCCC1CCCCC1 | 92.2% (inactive)
23 | COc1ccc2cc(C#N)c(N3CCN(Cc4nnnn4CCC(C)C)CC3)nc2c1 | 113% (inactive)
24 | CC(C)c1ccc(C(=O)NC(=S)Nc2ccc3[nH]c(=O)[nH]c3c2)cc1 | 158% (inactive)
25 | COCC1CCN(C(=O)c2cc(COc3ccc(OC)c4ccccc34)on2)C1 (stereo unspecified) | 82.6% (inactive)
26 | COc1ccc(-c2nc3ccccc3c(=O)n2CCOc2ccc(C)cc2C)cc1 | 113% (inactive)
27 | C[C@H](CO)N1C[C@H](C)[C@@H](CN(C)S(=O)(=O)c2cccs2)Oc2c(NC(=O)Nc3ccc4c(c3)OCO4)cccc2C1=O | 96.9% (inactive)
28 | COC(=O)c1ccc(CSc2nnc3c(n2)[nH]c2ccccc23)cc1 | 139% (inactive)
29 | COc1ccccc1-c1sc2ccccc2c1-c1ccc(OCCN2CCOCC2)cc1 | 99.3% (inactive)
30 | CCOc1ccc(C(=O)Nc2cccc(-c3cc4ccccc4oc3=O)c2)cc1[N+](=O)[O-] | 94.4% (inactive)
31 | O=C1/C(=C\c2ccc(-c3ccccc3Cl)o2)SC(=S)N1CC1CCCO1 (stereo unspecified) | 150% (inactive)
32 | O=C(Nc1ccc(O)cc1C(=O)O)c1ccc(NC(=O)c2ccco2)cc1 | 92.4% (inactive)
33 | Cc1ccc(/C=c2\sc3nc(-c4cccs4)nn3c2=O)o1 | 118% (inactive)
34 | CC(C)OC(=O)c1ccc(COC(=O)c2cccc(-c3nnc(-c4ccccc4)o3)c2)cc1 | 118% (inactive)
35 | NC(=O)c1nc(-c2ccco2)nc2c1[nH]c(=O)n2-c1ccc(Cl)c(Cl)c1 | 112% (inactive)
36 | O=C1C(Cc2ccccc2)Nc2ncnc(N3CCN(c4ccccc4)CC3)c2N1Cc1ccc(Br)cc1 (stereo unspecified) | 116% (inactive)
37 | COc1ccc(C(=O)NC2CC(C)(C)Cc3c2cnn3-c2ccccc2)c(OC)c1 (stereo unspecified) | 115% (inactive)
38 | Cc1ccc(CN(Cc2cccnc2)C(=O)CN2C(=O)COc3ccccc32)o1 | 96.1% (inactive)
39 | Cc1cc(C(=O)COC(=O)c2ccc[nH]c2=O)c(C)n1-c1ccc(F)cc1 | 102% (inactive)
40 | COc1cccc(-c2sc3cc(OC)c(OC)cc3c2-c2ccc(OCCN3CCCCC3)cc2)c1 | 112% (inactive)
41 | COc1ccc(-c2nc(C(N)=O)c3[nH]c(=O)n(-c4ccccc4OC)c3n2)c(OC)c1 | 74% (inactive)
42 | CCc1ccc(N=C2NC(=O)/C(=C/c3cc(OC)c(O)c(OC)c3)S2)cc1 | 419% (inactive)

Row | SMILES | fluorescence response, % of control
43 | Cc1ccc(OCc2cc(C(=O)NCC(C)(C)N3CCOCC3)no2)cc1C | 116% (inactive)
44 | COc1ccc(C(=O)NC2CCCc3c2cnn3-c2cccc(C)c2C)c(OC)n1 (stereo unspecified) | 75.9% (inactive)
45 | Cc1ccc(Cn2nnc3c(=O)[nH]c(C4CCN(S(=O)(=O)c5ccc(C)cc5)CC4)nc32)cc1 | 91.7% (inactive)
46 | CCOc1ccccc1-c1nc(C(N)=O)c2[nH]c(=O)n(-c3ccccc3)c2n1 | 90.8% (inactive)
47 | CC(C)C(=O)N1CCC2(CC1)Oc1ccc(F)cc1C(=O)C21CC(c2ccccc2)=NO1 (stereo unspecified) | 115% (inactive)
48 | COc1cc2c(cc1OC)C(=O)N1[C@H]3c4cc(C)ccc4OC[C@@H]3[C@H](c3ccccc3)[C@]1(C)C(=O)N2 | 99.3% (inactive)
49 | COc1ccc(C2c3ccc4ccccc4c3Oc3ncn(CCN4CCOCC4)c(=N)c32)cc1 (stereo unspecified) | 135% (inactive)
50 | Cc1cccc(C)c1-n1c(SCC(=O)N2CC(=O)Nc3ccccc32)nc2ccccc2c1=O | 118% (inactive)
51 | COCCn1c(=S)[nH]c2sc3c(c2c1=O)CCCC3 | 91.7% (inactive)
52 | COc1ccc(C2=NCC(=O)N(CC(=O)NCc3ccco3)c3sc4c(c32)CCCC4)cc1 | 95.7% (inactive)
53 | Cc1ccc(S(=O)(=O)N2CCOCC2)cc1NC(=O)COC(=O)CNC(=O)c1ccccc1 | 102% (inactive)
54 | O=C(Oc1ccc2c(=O)c(Oc3ccc4ccccc4c3)coc2c1)c1cncc(Br)c1 | 90.5% (inactive)
55 | Clc1ccc(C(c2ccc(Cl)cc2)n2cc[n+](CC(OCc3ccc(Cl)cc3Cl)c3ccc(Cl)cc3Cl)c2)cc1 (stereo unspecified) | 112% (inactive)
56 | O=C(CSc1nnc(Cc2cccs2)n1Cc1ccco1)Nc1cccc(Cl)c1 | 128% (inactive)
57 | Cc1c(CCOC(=O)CC23CC4CC(CC(C)(C4)C2)C3)sc[n+]1Cc1ccc([N+](=O)[O-])cc1 | 83.6% (inactive)
58 | COc1ccc(C2CC(c3ccccc3C(F)(F)F)=NN2c2ccc(S(N)(=O)=O)cc2)cc1 (stereo unspecified) | 106% (inactive)
59 | O=C(c1ccc2c(c1)OCO2)N1CCC2(CC1)Oc1ccc(F)cc1C(=O)C21CC(c2ccccc2)=NO1 (stereo unspecified) | 139% (inactive)
60 | COc1cc2c(=O)n(Cc3ccco3)c(=O)n(CC(=O)c3cccc(Br)c3)c2cc1OC | 86.2% (inactive)
61 | Cc1ccc(-c2cc(C(=O)Nc3ccc(S(=O)(=O)Nc4ncccn4)cc3)c3ccccc3n2)cc1 | 96.3% (inactive)
62 | COc1cccc(-c2sc3ccc(OC)cc3c2-c2ccc(OCCN3CCCCC3)cc2)c1 | 102% (inactive)
63 | O=C(Cn1c(COc2ccccc2)nc2ccccc21)Nc1cc(Cl)c(Cl)cc1Cl | 87.6% (inactive)

Row | SMILES | fluorescence response, % of control
64 | COc1cc2c(cc1NC(=O)CSc1nnc(Cc3cccs3)n1Cc1ccco1)oc1ccccc12 | 85.8% (inactive)
65 | CCC(Sc1nc2ccsc2c(=O)n1Cc1ccc(C(=O)O)cc1)C(=O)Nc1ccc(C)c(Cl)c1 (stereo unspecified) | 81.2% (inactive)
66 | CCCOc1ccc(/C=c2\sc3nc(-c4ccco4)nn3c2=O)cc1OCC | 95.1% (inactive)
67 | O=[N+]([O-])c1cc(/C=N\Nc2ccccn2)ccc1Cl | 96.1% (inactive)
68 | Cc1ccc(CSC2=Nc3ccccc3C3=NC(CC(=O)NCc4ccco4)C(=O)N23)cc1 (stereo unspecified) | 89% (inactive)
69 | NC(=S)NNC(=O)[C@@H]1CCCC[C@@H]1C(=O)O | 117% (inactive)
70 | O=C1C(Cl)=C(Nc2ccc3cn[nH]c3c2)C(=O)c2ccccc21 | 145% (inactive)
71 | CC(C)C(=O)N1CCC2(CC1)Oc1ccc(F)cc1C(=O)C21CC(c2ccc(Cl)cc2)=NO1 (stereo unspecified) | 105% (inactive)
72 | CCCCn1c(=N)n(CC(O)COc2ccc(C)cc2)c2ccccc21 (stereo unspecified) | 106% (inactive)
73 | O=C(NC1CCCc2c1cnn2-c1ccccc1F)c1ccccn1 (stereo unspecified) | 81.2% (inactive)
74 | COc1cccc(C2CC(c3ccccc3)=NN2S(=O)(=O)c2ccc(C)cc2)c1OC (stereo unspecified) | 108% (inactive)
75 | COc1ccc(-c2sc3cc(OC)ccc3c2-c2ccc(OCCN3CCOCC3)cc2)cc1 | 153% (inactive)
76 | CSc1ccccc1NC(=O)c1cc(-c2ccc3c(c2)OCO3)on1 | 101% (inactive)
77 | COc1cc(/C=C(\C#N)c2nc3ccccc3n2C)cc(OC)c1O | 333% (inactive)
78 | CCOc1ccccc1-c1nc(C(N)=O)c2[nH]c(=O)n(-c3cccc(C)c3)c2n1 | 80.3% (inactive)
79 | COc1cc(OC)cc(-c2sc3ccc(OC)cc3c2-c2ccc(OCCN3CCCCC3)cc2)c1 | 122% (inactive)
80 | Cc1nnc(N/N=C/c2cc([N+](=O)[O-])c(N3CCC(C)CC3)cc2N2CCC(C)CC2)n1N | 97.1% (inactive)
81 | COc1ccc(CCOC(=O)c2ccc(N)c([N+](=O)[O-])c2)cc1 | 110% (inactive)

Reference: PubChem BioAssay AID588620 (NMMLSC, 2011)
